Source: patent publication US8920851B2, “Treatment of neurodegenerative diseases” (Velacor Therapeutics Pty Ltd, priority 2006, dated 2014)
Entries after “also recorded” stand apart in the source; their conditions may differ.

Legend:
rabbit PP1 = conditions: 0.05 U PP1, 500 μM phospho-threonine peptide, 15 min at 37° C., 50 μM sodium selenate
Description: 1 mg of synthetic phosphopeptides K-R-pT-I-R-R (Upstate #12-219) and R-R-A-pS-V-A (Upstate #12-220) were dissolved in 1.10-1.285 ml of dH2O to prepare a 1 mM solution, then aliquoted and stored at −20° C. until use. 0.01-0.05 U of purified PP2A A-C dimer purified from human red blood cells, or 0.05 U of rabbit PP1 purified from skeletal muscle was mixed with 500 μM of phosphopeptide and incubated in the presence of various treatments as indicated at 37° C. on a heating block for 15 min. Each reaction was made up to a total volume of 25 μl with pNPP buffer (50 mM Tris-HCl, pH 7.0, 100 μM CaCl2). The enzyme reaction was terminated by adding 100 μl of malachite green solution (0.034% malachite green in 10 mM ammonium molybdate, 1 N HCl, 3.4% ethanol, 0.01% Tween-20). Malachite green forms a stable green complex in the presence of molybdate and orthophosphate, allowing the amount of inorganic phosphate present to be measured. Absorbance was read in duplicate for each sample at 590 nm.

[1] = molecular target: T1, purified human PP2A A-C dimer (Homo sapiens, UniProt P67775); assay: Free sulfhydryl groups in purified PP2A (Ellman's assay); type: biochemical; conditions: 15 min at 37° C.
T1 construct: purified PP2A A-C dimer purified from human red blood cells; purchased Upstate 14-111 (lot #28002); host or cells: human red blood cells (native purification)
Source text: Inactivating reversible oxidation of protein phosphatases involves the modification of a critical cysteine residue within the catalytic domain, ultimately leading to the formation of either intramolecular disulphide or sulphenyl-amide bonds. […] Ellman's reagent (5,5′-Dithio-bis(2-nitrobenzoic acid), DTNB) rapidly forms a disulphide bond with free sulfhydryl groups with the release of chromogenic thiolate ions. […] The quantity of free sulfhydryl groups present within the phosphatase was then determined by the addition of Ellman's reagent and subsequent measurement of absorbance at 412 nm (FIG. 5C).
The change in free sulfhydryl groups in purified PP2A following various treatments was determined using Ellman's Reagent. To 0.01 U of PP2A was added to 37.5 μl of dilution buffer (30 mM Tris-HCl, 3 mM EDTA, pH 8.2), 12.5 μl DTNB reagent (Ellman's reagent) and 200 μl of methanol. Samples were incubated for 5 min at RT, and then extinction measured in duplicate for each at 412 nm.

GSK-3β = GSK-3β Ser9 phosphorylation by immunoblot in PC3 cells; type: cell-based, human
Source text: The metabolic effects of insulin on glycogen synthesis are mediated by glycogen synthase kinase-3 (GSK-3), a direct downstream substrate of Akt. GSK-3 is a ubiquitously expressed serine/threonine kinase that phosphorylates and inactivates glycogen synthase. In response to activation of the insulin receptor, Akt phosphorylates and inactivates the repressor GSK-3, thereby stimulating glycogen synthesis [Cross et al., 1995]. […] Resolved whole cell lysates were subjected to immunoblot analysis with an antibody that specifically recognizes GSK-3β only when phosphorylated at Ser9, a site critical for its kinase activity, and comparison made with the cytoskeletal protein β-tubulin as a loading control.

[2] = tested on: TAU441 transgenic (Tg) TMHT mice
Source text: This was done every Monday, Wednesday and Friday, and the water was weighed on exchange to measure consumption.

[3] = molecular target: phosphatase activity associated with immunoprecipitated Akt protein (PP2A) (Homo sapiens, UniProt P67775); conditions: PC3 cells, 500 μM, 1 h
Description: 2×10^6 PC3 cells were plated in 10 cm plates, allowed to attach for 8 hours, and then serum starved over night. […] 500-600 μg of total protein was then immunoprecipitated with anti-Akt (1:100) monoclonal antibody and 30 μl of Protein A slurry, and after washing, checked for free phosphate contamination by incubation of 25 μl of final wash buffer with Malachite Green. Immunoprecipitates were assayed for phosphatase activity by incubation with 500 μM synthetic phospho-threonine peptide for 10 min at 30° C. with agitation. Free phosphate was detected by the addition of malachite green solution, and absorbance was read at 590 nm, for each sample in duplicate.

PP2A = molecular target: T2, PP2A (Homo sapiens, UniProt P67775); assay: PP2A immunoprecipitation from treated PC3 cells and phosphatase assay; type: cell-based; conditions: PC3 cells treated 1 hour; sodium selenate 500 μM, endothall A 100 μM
T2 construct: the phosphatase activity of the general pool of intracellular PP2A; endogenous in cells; host or cells: PC3 prostate carcinoma cells
T2 sequence (P67775 whole entry): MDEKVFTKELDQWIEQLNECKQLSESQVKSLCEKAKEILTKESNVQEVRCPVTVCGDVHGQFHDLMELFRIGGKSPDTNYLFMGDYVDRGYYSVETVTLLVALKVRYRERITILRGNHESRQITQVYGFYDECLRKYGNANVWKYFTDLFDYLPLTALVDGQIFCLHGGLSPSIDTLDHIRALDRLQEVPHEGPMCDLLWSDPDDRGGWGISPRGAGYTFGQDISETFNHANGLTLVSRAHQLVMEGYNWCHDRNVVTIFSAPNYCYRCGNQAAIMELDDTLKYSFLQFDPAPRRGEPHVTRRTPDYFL
T2 sequence (P30153 2-589 partner limits assumed): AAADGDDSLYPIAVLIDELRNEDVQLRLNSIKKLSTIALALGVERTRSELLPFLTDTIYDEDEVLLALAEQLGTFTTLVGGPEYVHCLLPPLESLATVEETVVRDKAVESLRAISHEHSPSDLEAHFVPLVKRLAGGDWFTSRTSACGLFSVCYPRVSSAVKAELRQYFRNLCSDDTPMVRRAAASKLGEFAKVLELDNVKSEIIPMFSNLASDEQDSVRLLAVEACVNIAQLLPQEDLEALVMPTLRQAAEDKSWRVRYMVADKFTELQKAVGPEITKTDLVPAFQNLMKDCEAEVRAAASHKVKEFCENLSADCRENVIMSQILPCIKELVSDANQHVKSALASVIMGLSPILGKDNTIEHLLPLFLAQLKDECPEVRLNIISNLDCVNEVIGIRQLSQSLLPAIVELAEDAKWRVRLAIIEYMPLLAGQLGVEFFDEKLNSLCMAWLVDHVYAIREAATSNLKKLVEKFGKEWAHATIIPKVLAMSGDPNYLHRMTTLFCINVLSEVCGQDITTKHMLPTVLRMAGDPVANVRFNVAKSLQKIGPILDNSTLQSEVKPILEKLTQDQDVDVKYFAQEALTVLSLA
Description: Free phosphate was removed by passing cell lysates through desalting columns, and measured phosphatase activity using a phosphor-serine peptide and malachite green.
1×10^6 PC3 cells were plated in 60 mm plates and allowed attach for 8 h, then serum starved over night. Following various treatments as indicated, the media was aspirated and cells washed once with TBS. Cells were lysed in 0.3 ml of lysis buffer (20 mM Tris-HCl, pH 7.0, 1% Igepal-CA, 2 mM EDTA, 2 mM EGTA, 1× Complete Protease Inhibitor Cocktail) and phosphates removed by passing the lysate through a 2 ml Zeba Desalt Spin Column (Pierce #89890). Protein concentration of the desalted lysate was determined by the BCA assay as previously described. 100-150 μg of total protein was immunoprecipitated with 4 μg of anti-PP2A monoclonal antibody and 30 μl of Protein A-sepharose slurry at 4° C. for 2 h. Samples were then pelleted at 14,000 rpm for 1 min, washed three times in excess TBS and once with pNPP assay buffer. After the final spin all of the supernatant was carefully removed and 500 μM of phosphor-threonine peptide in a final volume of 80 μl added to the beads. Samples were incubated at 30° C. for 10 min with agitation, and the reaction terminated by the addition of malachite green solution. Absorbance was read at 590 nm for each sample in duplicate.

T1 sequence (P67775 whole entry): as the sequence (P67775 whole entry) above
T1 sequence (P30153 2-589 partner limits assumed): as the sequence (P30153 2-589 partner limits assumed) above
phosphatase activity associated with immunoprecipitated Akt protein (PP2A), sequence (P67775 whole entry): as the sequence (P67775 whole entry) above
phosphatase activity associated with immunoprecipitated Akt protein (PP2A), sequence (P30153 2-589, further chain): as the sequence (P30153 2-589 partner limits assumed) above

Structure (SMILES): O=[Se](=O)(O)O [sodium selenate]
- phosphatase activity of PP1 (rabbit PP1): did not affect the phosphatase activity of PP1
- number of free sulfhydryl groups in PP2A ([1]; 0.01 U PP2A, 10 mM of each agent): has no effect
- hydrogen peroxide mediated modification of PP2A sulfhydryl groups in the presence of sodium selenate ([1]; sodium selenate 10 mM and hydrogen peroxide 10 mM): did not protect PP2A from hydrogen peroxide mediated modification of sulfhydryl groups; also recorded: significantly more efficient in the presence of sodium selenate
- GSK-3β phosphorylation at Ser9, time course (GSK-3β; 500 μM, 0 to 6 h): marked reduction in phosphorylation, which was maximal at 1 h and 3 h, and returned towards basal levels at the 6 h timepoint
- reduction of GSK-3β phosphorylation levels (GSK-3β; densitometry, sodium selenate 500 μM 3 h, LY294002 50 μM 1 h): over 20%
- Open Field activity parameters (activity, hyperactivity, rearing behaviour) ([2]; 1.2 mg per 100 mL drinking water, 12 weeks): uninfluenced
- finding the platform in the Morris Water Maze versus three months younger baseline group ([2]; day 1): faster
- finding the platform in the Morris Water Maze versus vehicle ([2]; day 1, 2 and 3, p≦0.01): faster
- thigmotaxis: abidance in the centre of the Open Field box, turn 1 ([2]; drinking water, 1.5 months after treatment start, versus vehicle, T-test p=0.019): significant higher abidance in the centre of the Open Field box
- curiosity behaviour (Nose poke) ([2]; drinking water, 12 weeks): remained unchanged
- motor performance (Rota Rod) ([2]; drinking water, 12 weeks): remained unchanged
- negative side effects and premature deaths ([2]; drinking water, 12 weeks): did not lead to any negative side effects or caused any premature deaths
- thigmotactic behaviour, turn 2 ([2]; drinking water, end of treatment): normalized to the level of the vehicle controls
- phosphatase activity associated with immunoprecipitated Akt protein [3]: more than doubled
- phosphatase activity of immunoprecipitated PP2A (general intracellular pool) (PP2A): had no effect
